Measurements from patent publication US7268209B2, “Peptides, derivates thereof, process for producing the same, novel strain producing the same, and antiviral agent comprising the same as active ingredient” (Toyo Suisan Kaisha, Ltd., priority 2001, dated 2007).
Where a SMILES comes first, the peptide text is derived from it. Bridges are numbered along the chain shown (N, C = ends). [ ]: non-standard residue; d: D form. The star is where a group is joined. ξ: configuration not given here. Decanoyl(3ξ-OH) = CCCCCCCC(O)CC(=O)*; X1 = CCCCCC/C=C/CC(O)CC(=O)*; Dab = NCC[CH](N)C(=O)O

What was measured:
[1] = system: white spot syndrome virus (WSSV); assay: Antiviral effect against shrimp virus: injection of peptide-treated WSSV into shrimp; assay type: in vivo, Penaeus monodon (black tiger shrimp); conditions: WSSV mixed with equal volume of 100 μg/mL peptide solution, 25° C. 1 hour, 0.1 mL intramuscular; observed 2 weeks; 10 shrimps per group
Procedure: Penaeus monodon (black tiger shrimp) weighing about 20 g were divided at random into groups each consisting of 10 shrimps and raised separately. A viral culture fluid prepared by diluting the white spot syndrome virus (WSSV LD50 value; 10^−3.6) 2000-fold with Hank's solution was mixed with an equal volume of a diluted solution (100 μg/mL) of the present peptides MA026 and BTI-MA026. After the mixture was incubated at 25° C. for 1 hour, the solution was intramuscularly injected at a dose of 0.1 mL into each shrimp, for viral inoculation. Whether the shrimps were actually inoculated with the virus or not was determined by observing them for 2 weeks after viral infection, and pathologically examining the ones that dies. The lesion tissues were examined to detect the viral gene by the PCR method. In the control group, Hank's solution only was used.

[2] = system: rhabdovirus (EVA) in American eels; assay: Antiviral activity by plaque reduction, EVA; assay type: cell-based; conditions: method of Example 1, decrease in number of plaques
Procedure: (§1) Evaluation of the antiviral activity was conducted by the same method as described by Burke et al. (Appln. Env. Microbiol., 29, 872-876, 1980) except for the following partial modification. • (1) A sample to be measured for its antiviral activity is dissolved in dimethyl sulfoxide (DMSO) and then diluted with Hank's solution. • (2) 0.2 mL each of the diluted solution in (1) and a viral solution (IHNV HV7601 strain; 100 to 200 PFU/sample) diluted with Hank's solution are mixed and incubated at 10° C. for 2 hours. • (3) After the incubation in (2), the sample is inoculated for 30 minutes in CHSE-214 cells previously cultured for 24 hours in a 24-well cell culture plate. • (4) The sample is removed from each well, and an MEM medium containing. 0.8% methyl cellulose is overlaid on the cells and cultured for 7 days. • (5) The cells on the culture plate are fixed in 3.7% aqueous formalin, and after staining with 1% Crystal Violet, the number of plaques is counted. • (6) The antiviral activity is expressed in terms of the decrease in the number of plaques, relative to that decrease on wells to which the sample was not added. […]
(§2) The antiviral activities of the present peptide MA026 against infectious hematopoietic necrosis virus (IHNV) in salmonid, rhabdovirus (EVA) in American eels and rhabdovirus (EVEX) in European eels were measured according to the method described in Example 1.

[3] = system: rhabdovirus (EVEX) in European eels; assay: Antiviral activity by plaque reduction, EVEX; assay type: cell-based; conditions: method of Example 1, decrease in number of plaques
Procedure: as §1, §2

IHNV HV7601 strain = assay: Antiviral activity by plaque reduction, IHNV in CHSE-214 cells; assay type: cell-based, infectious hematopoietic necrosis virus (IHNV) in salmonid; conditions: decrease in number of plaques, sample and virus pre-incubated at 10° C. for 2 hours
Procedure: Evaluation of the antiviral activity was conducted by the same method as described by Burke et al. (Appln. Env. Microbiol., 29, 872-876, 1980) except for the following partial modification. • (1) A sample to be measured for its antiviral activity is dissolved in dimethyl sulfoxide (DMSO) and then diluted with Hank's solution. • (2) 0.2 mL each of the diluted solution in (1) and a viral solution (IHNV HV7601 strain; 100 to 200 PFU/sample) diluted with Hank's solution are mixed and incubated at 10° C. for 2 hours. • (3) After the incubation in (2), the sample is inoculated for 30 minutes in CHSE-214 cells previously cultured for 24 hours in a 24-well cell culture plate. • (4) The sample is removed from each well, and an MEM medium containing. 0.8% methyl cellulose is overlaid on the cells and cultured for 7 days. • (5) The cells on the culture plate are fixed in 3.7% aqueous formalin, and after staining with 1% Crystal Violet, the number of plaques is counted. • (6) The antiviral activity is expressed in terms of the decrease in the number of plaques, relative to that decrease on wells to which the sample was not added. (Composition of the Medium) • a) 5.00 g polypeptone, 2.50 g meat extract, 2.50 g yeast extract, 0.20 g K2HPO4, 0.05 g MgSO4, 1.00 g glucose, 5.00 g NaCl, 1000 mL distilled water, pH 7.5, which were autoclaved at 121° C. for 15 minutes. • b) 15.00 g agar for microorganisms is added to a).
In the following examples, the evaluation of the antiviral activity was conducted in the method described above.
as §2

hepatitis C virus (HCV) = assay type: cell-based; conditions: summary of Table 14
Procedure: Using the present peptides MA026, BTI-MA026 and R2MA026 as objects, the antiviral effect against hepatitis C virus (HCV) was examined. The experiments were conducted according to the method of Mizutani et al. (Biochem. Biophys. Res. Commun. 227, 822-826, 1996) under supervision of Dr. Kunitada Shimotohno at Institute for Viral Research, Kyoto University. • (1) 1×10^6 gene titer per 0.1 mL of HCV was infected with 1×10^6 MT-2C cells per 1 mL, and cultured at 32° C. for 4 days. • (2) The infected cells of (1) were divided (10^5 cells per well) into a 96-well plate and incubated at 32° C. for 1 day. • (3) Each of the present peptides was added to each well so that the concentration thereof became 1 μM and 5 μM, and incubated at 32° C. for further 2 days. • (4) RNA was extracted from the test cells, and after synthesized cDNA with a reverse transcriptase, PCR of first and second round were performed to detect the HCV gene. • (5) The inhibition effect against HCV was evaluated by comparing fluorescence intensities of the PCR products originated from the HCV infected cells to which the test sample was added, assuming the fluorescence intensity of the PCR product originated from the infected cells to which no test substance was added, to be 100%.

## CCCCCCCC(O)CC(=O)NC(CC(C)C)C(=O)NC(CCC(=O)O)C(=O)NC(CCC(N)=O)C(=O)NC(C(=O)NC(CC(C)C)C(=O)NC(CCC(N)=O)C(=O)NC1COC(=O)C(C(C)CC)NC(=O)C(CCC(N)=O)NC(=O)C(CC(C)C)NC(=O)C(CCC(N)=O)NC(=O)C(CC(C)C)NC(=O)C(CC(C)C)NC(=O)C(C(C)C)NC1=O)C(C)C (stereo not drawn) [MA026] ({Decanoyl(3ξ-OH)}-LEQVLQSVLLQLQI; ester 7-C; configuration not given here)
[1]
  dead shrimp after inoculation with WSSV: no dead shrimp
[2]
  antiviral activity against EVA: high antiviral activity
[3]
  antiviral activity against EVEX: high antiviral activity
IHNV HV7601 strain
  antiviral activity against IHNV: high antiviral activity
Hepatitis C virus (HCV)
  proliferation of hepatitis C virus: inhibited

## CCCCCCCC(O)CC(=O)NC(CC(C)C)C(=O)NC(CCC(=O)O)C(=O)NC(CCN)C(=O)NC(C(=O)NC(CC(C)C)C(=O)NC(CCN)C(=O)NC1COC(=O)C(C(C)CC)NC(=O)C(CCN)NC(=O)C(CC(C)C)NC(=O)C(CCN)NC(=O)C(CC(C)C)NC(=O)C(CC(C)C)NC(=O)C(C(C)C)NC1=O)C(C)C (stereo not drawn) [BTI-MA026] ({Decanoyl(3ξ-OH)}-LE[Dab]VL[Dab]SVLL[Dab]L[Dab]I; ester 7-C; configuration not given here)
[1]
  dead shrimp after inoculation with WSSV: no dead shrimp
IHNV HV7601 strain
  antiviral activity against IHNV: confirmed
Hepatitis C virus (HCV)
  proliferation of hepatitis C virus: inhibited

## CCCCCCCC(O)CC(=O)NC(CC(C)C)C(=O)NC(CCC(=O)O)C(=O)NC(CCN)C(=O)NC(C(=O)NC(CC(C)C)C(=O)NC(CCN)C(=O)NC(CO)C(=O)NC(C(=O)NC(CC(C)C)C(=O)NC(CC(C)C)C(=O)NC(CCN)C(=O)NC(CC(C)C)C(=O)NC(CCN)C(=O)NC(C(=O)O)C(C)CC)C(C)C)C(C)C (stereo not drawn) [BTI-base MA026] ({Decanoyl(3ξ-OH)}-LE[Dab]VL[Dab]SVLL[Dab]L[Dab]I-OH; configuration not given here)
IHNV HV7601 strain
  antiviral activity against IHNV: confirmed

## CCCCCC/C=C/CC(O)CC(=O)NC(CC(C)C)C(=O)NC(CCC(=O)O)C(=O)NC(CCC(N)=O)C(=O)NC(C(=O)NC(CC(C)C)C(=O)NC(CCC(N)=O)C(=O)NC1COC(=O)C(C(C)CC)NC(=O)C(CCC(N)=O)NC(=O)C(CC(C)C)NC(=O)C(CCC(N)=O)NC(=O)C(CC(C)C)NC(=O)C(CC(C)C)NC(=O)C(C(C)C)NC1=O)C(C)C (stereo not drawn) [R2MA026] (X1-LEQVLQSVLLQLQI; ester 7-C; configuration not given here)
IHNV HV7601 strain
  antiviral activity against IHNV: confirmed
Hepatitis C virus (HCV)
  proliferation of hepatitis C virus: inhibited

## CCCCCCCC(O)CC(=O)NC(CC(C)C)C(=O)NC(CCC(=O)O)C(=O)NC(CCC(N)=O)C(=O)NC(C(=O)NC(CC(C)C)C(=O)NC(CCC(N)=O)C(=O)NC1COC(=O)C(CC(C)C)NC(=O)C(CCC(N)=O)NC(=O)C(CC(C)C)NC(=O)C(CCC(N)=O)NC(=O)C(CC(C)C)NC(=O)C(C(C)C)NC(=O)C(C(C)C)NC1=O)C(C)C (stereo not drawn) [R1MA026] ({Decanoyl(3ξ-OH)}-LEQVLQSVVLQLQL; ester 7-C; configuration not given here)
IHNV HV7601 strain
  antiviral activity against IHNV: confirmed
